Results as given in patent US7351737B2, “4-[(8-substituted)-6-chromanoyl]-and 4-[8-substituted)-chroman-6-YL-ethynyl]-benzoic and phenylacetic acids, their esters and salts having cytochrome P450RAI inhibitory activity” (Allergan, Inc., priority 2002, dated 2008).

System: skin of fuzzy rats
Assay: Topical skin irritation test
Type: in vivo, female fuzzy rats (Hsd:FUZZY-fz)
Details: 0.1% retinol alone, topical in acetone, daily Day 1-14; group average of erythema/eschar grade 0-4 (Table 2)
From the text: The topical retinoid all-trans-retinoic acid (ATRA) and oral retinoids such as 13-cis RA and etretinate are known to induce substantial skin irritation in humans. This irritation is a direct result of activation of the RAR nuclear receptors. Analysis of retinoid topical irritation is also a highly reproducable method of determining in vivo retinoid potency. The female fuzzy rats provide a convenient animal model of topical irritation, since retinoid-induced skin flaking and abrasion can be readily scored by eye, while their larger size than those of mice also allows multiple sampling of serum for clinical analyses. Topical application of P450RAI inhibitors should cause an increase in the endogenous levels of ATRA that would result in ATRA-induced irritation in skin of hairless mice. In these tests female fuzzy rats ((Hsd:FUZZY-fz), 6-7 weeks old, were obtained from Harlan Sprague-Dawley (Indianapolis, Ind.). The animals were about 8-9 weeks old at the start of the experiments. Food (Purina Rodent Chow 5001) and water purified by reverse osmosis were provided ad libitum. The rats were housed individually throughout the dosing period. Test chemicals were dissolved in acetone (vehicle) for application to the backs of the rats. Two days prior to actual administration of the test compounds, rats were handled daily and dosed with vehicle at a volume of 0.5 ml/kg. Starting on Day 1 thought Day 14 (dosing period), animals were dosed with the vehicle or compound(s) according to their group assignment. The rats in the tests were observed daily and the dorsal skin was graded for the degree of erythema/eschar and overall appearance. The scoring was in accordance with Table 2, below. [table] Daily group average was calculated by dividing the sum of the individual grade by the number of animals in each treatment group. The attached data in Table 3 indicates the retinoid-mimetic effects of some P450RAI inhibitors on the skin of fuzzy rats in the above described tests and in accordance with the above-indicated scoring.

In the case of CC1=C(/C=C/C(C)=C/C=C/C(C)=C/CO)C(C)(C)CCC1 [retinol, reference compound], the “Irritation Score on day 14” value is reported as 1.
